The values below come from ChEMBL document CHEMBL5214927, “Recent advance on carbamate-based cholinesterase inhibitors as potential multifunctional agents against Alzheimer's disease” (Eur J Med Chem, 2022).

Assay [1] concerns the target T1, Cholinesterases; ACHE & BCHE (Homo sapiens) (UniProt P06276+P22303). The experiment in a line: Selectivity index, ratio of IC50 for AChE (unknown origin) to BChE (unknown origin). In kind it is protein assay.
Assay [2] addresses Acetylcholinesterase (Torpedo californica, UniProt P04058).
Description: Inhibition of Pacific electric ray AChE using acetylthiocholine iodide as substrate by Ellman's method
Assay [3] has as its target T1, Cholinesterases; ACHE & BCHE (Homo sapiens). The experiment in a line: Selectivity index, ratio of IC50 for human plasma BChE to IC50 for human erythrocyte AChE. In kind it is protein assay.
In assay [4] the target is T2, Acetylcholinesterase (Homo sapiens, UniProt P22303). The assay can be described thus: Inhibition of human erythrocyte AChE using acetyl-(beta-methyl)thiocholine as substrate by Ellman's method. A general note: In Ellman's method for cholinesterases, released thiocholine reacts with DTNB.
Assay [5] has as its target T3, Cholinesterase (Homo sapiens, UniProt P06276). The assay can be described thus: Inhibition of human plasma BChE using S-butyrylthiocholine as substrate by Ellman's method.
For assay [6], the target named is T2, Acetylcholinesterase. The experiment in a line: Inhibition of recombinant human AChE using acetylthiocholine as substrate at 100 uM preincubated for 5 mins followed by substrate addition measured for 1 min by Ellman's method relative to control. The conditions noted are these: time 6.0 min.
Assay [7] deals with T4, Amine oxidase [flavin-containing] A (Homo sapiens, UniProt P21397).
T4 sequence (P21397 whole entry): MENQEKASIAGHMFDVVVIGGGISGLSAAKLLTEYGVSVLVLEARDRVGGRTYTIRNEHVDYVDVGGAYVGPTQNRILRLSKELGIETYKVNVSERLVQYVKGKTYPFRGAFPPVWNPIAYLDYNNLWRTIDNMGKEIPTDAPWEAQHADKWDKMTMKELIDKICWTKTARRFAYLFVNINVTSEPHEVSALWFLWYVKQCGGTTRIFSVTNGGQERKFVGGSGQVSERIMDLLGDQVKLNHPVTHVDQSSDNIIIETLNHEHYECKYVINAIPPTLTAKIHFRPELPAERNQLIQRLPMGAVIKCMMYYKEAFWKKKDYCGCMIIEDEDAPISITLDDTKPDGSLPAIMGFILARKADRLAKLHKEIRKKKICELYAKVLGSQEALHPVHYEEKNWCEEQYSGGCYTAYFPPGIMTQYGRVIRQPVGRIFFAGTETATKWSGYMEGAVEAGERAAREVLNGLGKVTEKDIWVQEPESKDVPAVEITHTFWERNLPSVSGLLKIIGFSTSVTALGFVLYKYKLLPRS
The experiment in a line: Inhibition of recombinant human MAO-A expressed in BTI-TN-5B1-4 insect cells using p-tyramine as substrate at 100 uM preincubated for 15 mins followed by substrate addition measured after 20 mins by Amplex Red assay relative to control. The conditions noted are these: BTI-TN-5B1-4, human, time 35 min.

Assay [8] has as its target T3, Cholinesterase. The assay can be described thus: Binding affinity of human serum BChE assessed as inhibition constant by Ellman's method.
Assay [9] deals with T2, Acetylcholinesterase. The assay can be described thus: Binding affinity to AChE (unknown origin) assessed as inhibition constant preincubated for 60 mins followed by substrate addition measured after 60 mins by colorimetric method.
The target in the next assay is Beta-secretase 1 (Homo sapiens, UniProt P56817). The assay can be described thus: Inhibition of BACE1 (unknown origin) using A-beta-PP as substrate by fluorescence based assay.
For another assay, the target named is Carbonic anhydrase 1 (Homo sapiens, UniProt P00915). The experiment in a line: Binding affinity to human CA1 assessed as inhibition constant using p-nitrophenylacetate as substrate by spectrophotometry.
For the next assay, the target named is Carbonic anhydrase 2 (Homo sapiens, UniProt P00918). The assay can be described thus: Binding affinity to human CA2 assessed as inhibition constant using p-nitrophenylacetate as substrate by spectrophotometry.
The target of assay [10] is T2, Acetylcholinesterase. The assay can be described thus: Binding affinity to AChE (unknown origin) assessed as inhibition constant using acetylthiocholine iodide as substrate preincubated for 10 mins followed by substrate addition by Ellman's method.
Assay [11] addresses T5, Acetylcholinesterase (Rattus norvegicus, UniProt P37136).
T5 sequence (P37136 whole entry): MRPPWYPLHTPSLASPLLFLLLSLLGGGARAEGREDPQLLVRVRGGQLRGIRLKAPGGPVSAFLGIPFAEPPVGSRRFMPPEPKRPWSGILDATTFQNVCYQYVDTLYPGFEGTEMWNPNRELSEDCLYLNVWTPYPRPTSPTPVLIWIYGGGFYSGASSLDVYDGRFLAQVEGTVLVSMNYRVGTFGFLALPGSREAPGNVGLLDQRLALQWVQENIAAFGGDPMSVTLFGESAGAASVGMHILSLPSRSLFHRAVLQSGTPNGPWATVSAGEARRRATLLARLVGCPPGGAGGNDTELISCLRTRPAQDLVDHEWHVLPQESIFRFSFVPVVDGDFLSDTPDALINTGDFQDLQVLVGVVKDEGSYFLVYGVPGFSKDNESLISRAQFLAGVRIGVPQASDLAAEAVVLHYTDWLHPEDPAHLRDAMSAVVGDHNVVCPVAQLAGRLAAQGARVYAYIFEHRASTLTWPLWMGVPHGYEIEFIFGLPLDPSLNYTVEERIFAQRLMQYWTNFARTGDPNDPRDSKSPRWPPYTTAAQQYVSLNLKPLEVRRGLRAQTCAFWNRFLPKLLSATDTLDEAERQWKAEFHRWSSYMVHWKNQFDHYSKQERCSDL
The assay can be described thus: Inhibition of rat AChE by Ellman's method.

Assay [12] deals with T4, Amine oxidase [flavin-containing] A. The experiment in a line: Inhibition of MAO-A (unknown origin).
Assay [13] deals with T6, Amine oxidase [flavin-containing] B (Homo sapiens, UniProt P27338).
T6 sequence (P27338 whole entry): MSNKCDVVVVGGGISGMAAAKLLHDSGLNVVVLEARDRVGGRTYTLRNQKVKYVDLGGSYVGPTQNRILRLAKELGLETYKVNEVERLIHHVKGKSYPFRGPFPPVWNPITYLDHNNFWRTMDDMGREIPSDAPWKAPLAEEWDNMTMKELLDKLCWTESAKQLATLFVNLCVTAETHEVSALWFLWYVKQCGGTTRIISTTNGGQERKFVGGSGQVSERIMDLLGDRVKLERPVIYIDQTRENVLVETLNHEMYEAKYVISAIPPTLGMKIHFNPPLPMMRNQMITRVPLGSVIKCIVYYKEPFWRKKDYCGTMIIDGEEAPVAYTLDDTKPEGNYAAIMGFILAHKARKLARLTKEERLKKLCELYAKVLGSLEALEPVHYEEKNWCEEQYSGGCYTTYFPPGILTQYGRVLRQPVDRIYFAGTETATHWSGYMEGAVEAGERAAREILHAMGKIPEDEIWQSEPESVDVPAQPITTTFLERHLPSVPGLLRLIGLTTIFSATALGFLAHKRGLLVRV
The assay can be described thus: Inhibition of MAO-B (unknown origin).

Assay [14] deals with Cholinesterase (Equus caballus, UniProt P81908). The assay can be described thus: Inhibition of equine BChE.
In assay [15] the target is High affinity cGMP-specific 3',5'-cyclic phosphodiesterase 9A (Homo sapiens, UniProt O76083). The assay can be described thus: Inhibition of PDE9A (unknown origin).
For assay [16], the target named is T2, Acetylcholinesterase. The experiment in a line: Binding affinity to human AChE assessed as inhibition constant.
Assay [17] has as its target T3, Cholinesterase. The experiment in a line: Binding affinity to human BChE assessed as inhibition constant.
Assay [18] has as its target T2, Acetylcholinesterase. The experiment in a line: Inhibition of human erythrocyte AChE using acetylthiocholine iodide as substrate preincubated for 6 mins followed by substrate addition measured upto 180 secs by Ellman's method.
Assay [19] has as its target T6, Amine oxidase [flavin-containing] B. The assay can be described thus: Inhibition of recombinant human MAO-B using p-tyramine as substrate preincubated for 15 mins followed by substrate addition measured upto 20 mins by Amplex red assay.
The target in assay [20] is Acetylcholinesterase (Bos taurus, UniProt P23795).
Description: Inhibition of bovine AChE
Assay [21] concerns the target T2, Acetylcholinesterase. The assay can be described thus: Inhibition of human AChE using acetylthiocholine iodide as substrate preincubated for 10 mins followed by substrate addition by spectrophotometry.
For assay [22], the target named is T2, Acetylcholinesterase. The assay can be described thus: Binding affinity to human AChE assessed as inhibition constant using acetylthiocholine iodide as substrate preincubated for 10 mins followed by substrate addition by Ellman's method.

A value given as a limit tells only on which side of the number the result lay.

T2 sequence (P22303 whole entry): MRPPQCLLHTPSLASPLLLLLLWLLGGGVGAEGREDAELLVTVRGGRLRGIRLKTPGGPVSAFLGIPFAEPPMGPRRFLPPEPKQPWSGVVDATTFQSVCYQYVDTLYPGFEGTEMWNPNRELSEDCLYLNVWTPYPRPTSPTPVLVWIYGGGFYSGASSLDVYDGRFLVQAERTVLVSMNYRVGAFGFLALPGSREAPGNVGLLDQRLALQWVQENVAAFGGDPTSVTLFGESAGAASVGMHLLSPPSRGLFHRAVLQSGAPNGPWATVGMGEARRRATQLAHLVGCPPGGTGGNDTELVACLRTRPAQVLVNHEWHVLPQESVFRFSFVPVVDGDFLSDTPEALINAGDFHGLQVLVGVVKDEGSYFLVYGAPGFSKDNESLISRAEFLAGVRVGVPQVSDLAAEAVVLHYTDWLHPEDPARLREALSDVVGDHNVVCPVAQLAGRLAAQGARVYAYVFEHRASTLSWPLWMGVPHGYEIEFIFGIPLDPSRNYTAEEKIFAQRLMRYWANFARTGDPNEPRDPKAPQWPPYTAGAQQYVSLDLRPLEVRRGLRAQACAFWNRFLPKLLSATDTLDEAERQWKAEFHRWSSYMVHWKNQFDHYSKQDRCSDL
T3 sequence (P06276 whole entry): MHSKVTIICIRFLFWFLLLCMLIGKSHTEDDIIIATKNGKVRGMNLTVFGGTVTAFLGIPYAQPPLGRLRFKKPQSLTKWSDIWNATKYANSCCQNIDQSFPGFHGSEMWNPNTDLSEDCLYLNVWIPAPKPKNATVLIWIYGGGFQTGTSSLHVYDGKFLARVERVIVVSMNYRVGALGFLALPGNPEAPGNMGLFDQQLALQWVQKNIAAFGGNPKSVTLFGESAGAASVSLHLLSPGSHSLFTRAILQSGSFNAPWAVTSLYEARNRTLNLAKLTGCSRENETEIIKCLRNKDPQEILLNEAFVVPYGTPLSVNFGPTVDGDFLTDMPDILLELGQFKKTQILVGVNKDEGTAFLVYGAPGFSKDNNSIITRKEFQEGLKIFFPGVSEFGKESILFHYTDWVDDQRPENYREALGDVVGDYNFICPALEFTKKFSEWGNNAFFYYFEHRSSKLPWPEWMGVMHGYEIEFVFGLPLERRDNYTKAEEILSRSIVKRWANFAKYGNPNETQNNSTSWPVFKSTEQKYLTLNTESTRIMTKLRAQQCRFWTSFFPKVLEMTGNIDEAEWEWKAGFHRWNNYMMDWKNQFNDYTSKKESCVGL
Chain of Cholinesterase (Equus caballus, UniProt P81908) (P81908 whole entry): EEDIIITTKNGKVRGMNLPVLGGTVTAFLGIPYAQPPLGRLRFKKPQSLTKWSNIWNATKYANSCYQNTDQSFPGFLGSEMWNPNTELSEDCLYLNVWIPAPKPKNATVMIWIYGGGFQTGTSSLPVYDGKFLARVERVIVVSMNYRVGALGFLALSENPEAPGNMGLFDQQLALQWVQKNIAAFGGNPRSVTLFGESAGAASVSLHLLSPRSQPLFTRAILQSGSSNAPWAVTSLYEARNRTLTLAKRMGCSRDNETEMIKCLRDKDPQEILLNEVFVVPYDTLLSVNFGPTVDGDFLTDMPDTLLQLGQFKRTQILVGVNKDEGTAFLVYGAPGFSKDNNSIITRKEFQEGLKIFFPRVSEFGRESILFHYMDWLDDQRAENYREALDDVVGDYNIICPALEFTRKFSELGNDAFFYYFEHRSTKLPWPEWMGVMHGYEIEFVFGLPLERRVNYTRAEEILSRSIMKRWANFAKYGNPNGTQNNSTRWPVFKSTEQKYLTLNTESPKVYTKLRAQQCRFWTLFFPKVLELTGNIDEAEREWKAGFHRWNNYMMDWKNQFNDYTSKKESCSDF
Chain of Carbonic anhydrase 1 (P00915 whole entry): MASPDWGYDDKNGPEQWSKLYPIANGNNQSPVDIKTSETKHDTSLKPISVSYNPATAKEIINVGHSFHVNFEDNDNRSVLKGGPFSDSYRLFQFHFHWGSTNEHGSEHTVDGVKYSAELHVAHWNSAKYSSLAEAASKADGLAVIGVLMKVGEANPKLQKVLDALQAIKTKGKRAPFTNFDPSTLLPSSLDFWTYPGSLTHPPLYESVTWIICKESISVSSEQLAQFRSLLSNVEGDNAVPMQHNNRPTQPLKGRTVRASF
T1 sequence (P06276 whole entry, looked up): as the sequence (P06276 whole entry) above
T1 sequence (P22303 whole entry, looked up): as the sequence (P22303 whole entry) above
Chain of Acetylcholinesterase (Bos taurus, UniProt P23795) (P23795 whole entry): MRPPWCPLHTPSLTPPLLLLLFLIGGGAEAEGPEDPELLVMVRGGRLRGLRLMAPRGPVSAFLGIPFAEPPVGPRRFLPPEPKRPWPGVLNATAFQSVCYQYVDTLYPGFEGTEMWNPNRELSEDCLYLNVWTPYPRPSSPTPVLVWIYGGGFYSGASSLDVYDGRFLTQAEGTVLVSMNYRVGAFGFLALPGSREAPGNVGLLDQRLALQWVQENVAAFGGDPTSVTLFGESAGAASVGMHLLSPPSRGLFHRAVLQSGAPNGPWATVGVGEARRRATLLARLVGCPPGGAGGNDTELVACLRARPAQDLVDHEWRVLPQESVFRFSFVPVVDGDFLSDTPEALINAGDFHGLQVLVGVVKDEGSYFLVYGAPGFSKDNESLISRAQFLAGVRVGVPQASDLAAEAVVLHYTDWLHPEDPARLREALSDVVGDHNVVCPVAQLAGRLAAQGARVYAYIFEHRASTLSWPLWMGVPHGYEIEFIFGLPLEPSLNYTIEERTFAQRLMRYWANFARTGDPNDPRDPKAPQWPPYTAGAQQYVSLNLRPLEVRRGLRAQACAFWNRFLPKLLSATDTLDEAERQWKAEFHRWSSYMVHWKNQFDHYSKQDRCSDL
Chain of High affinity cGMP-specific 3',5'-cyclic phosphodiesterase 9A (O76083 whole entry): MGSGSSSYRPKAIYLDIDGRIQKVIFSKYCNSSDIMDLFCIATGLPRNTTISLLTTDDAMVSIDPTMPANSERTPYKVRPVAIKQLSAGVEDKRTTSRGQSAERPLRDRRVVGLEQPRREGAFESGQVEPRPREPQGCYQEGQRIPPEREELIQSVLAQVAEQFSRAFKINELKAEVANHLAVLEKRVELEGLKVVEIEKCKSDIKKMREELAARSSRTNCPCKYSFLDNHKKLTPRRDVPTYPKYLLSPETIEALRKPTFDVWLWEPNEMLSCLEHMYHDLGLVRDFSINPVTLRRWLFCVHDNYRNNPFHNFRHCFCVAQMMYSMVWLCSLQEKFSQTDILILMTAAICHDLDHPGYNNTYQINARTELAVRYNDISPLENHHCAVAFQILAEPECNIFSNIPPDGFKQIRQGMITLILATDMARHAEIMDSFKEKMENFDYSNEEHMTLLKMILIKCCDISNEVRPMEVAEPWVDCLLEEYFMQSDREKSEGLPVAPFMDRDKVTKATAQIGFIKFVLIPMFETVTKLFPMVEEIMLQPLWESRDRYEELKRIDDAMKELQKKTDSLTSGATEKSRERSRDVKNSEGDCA
Chain of Beta-secretase 1 (P56817 whole entry): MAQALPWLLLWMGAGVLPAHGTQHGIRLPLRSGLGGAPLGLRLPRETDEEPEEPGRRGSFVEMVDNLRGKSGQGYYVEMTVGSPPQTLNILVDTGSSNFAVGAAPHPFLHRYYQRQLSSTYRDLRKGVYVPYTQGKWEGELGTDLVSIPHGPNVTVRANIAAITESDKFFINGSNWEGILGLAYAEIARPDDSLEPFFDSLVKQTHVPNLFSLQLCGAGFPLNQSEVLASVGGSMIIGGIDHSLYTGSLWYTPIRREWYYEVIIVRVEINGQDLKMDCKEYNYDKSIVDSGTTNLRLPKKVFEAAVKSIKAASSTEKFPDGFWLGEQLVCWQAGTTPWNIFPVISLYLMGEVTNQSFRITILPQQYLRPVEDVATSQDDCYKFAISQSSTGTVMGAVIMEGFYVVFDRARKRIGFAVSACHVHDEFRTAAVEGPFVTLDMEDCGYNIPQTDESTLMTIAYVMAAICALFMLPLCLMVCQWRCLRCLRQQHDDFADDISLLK
Chain of Acetylcholinesterase (Torpedo californica, UniProt P04058) (P04058 whole entry): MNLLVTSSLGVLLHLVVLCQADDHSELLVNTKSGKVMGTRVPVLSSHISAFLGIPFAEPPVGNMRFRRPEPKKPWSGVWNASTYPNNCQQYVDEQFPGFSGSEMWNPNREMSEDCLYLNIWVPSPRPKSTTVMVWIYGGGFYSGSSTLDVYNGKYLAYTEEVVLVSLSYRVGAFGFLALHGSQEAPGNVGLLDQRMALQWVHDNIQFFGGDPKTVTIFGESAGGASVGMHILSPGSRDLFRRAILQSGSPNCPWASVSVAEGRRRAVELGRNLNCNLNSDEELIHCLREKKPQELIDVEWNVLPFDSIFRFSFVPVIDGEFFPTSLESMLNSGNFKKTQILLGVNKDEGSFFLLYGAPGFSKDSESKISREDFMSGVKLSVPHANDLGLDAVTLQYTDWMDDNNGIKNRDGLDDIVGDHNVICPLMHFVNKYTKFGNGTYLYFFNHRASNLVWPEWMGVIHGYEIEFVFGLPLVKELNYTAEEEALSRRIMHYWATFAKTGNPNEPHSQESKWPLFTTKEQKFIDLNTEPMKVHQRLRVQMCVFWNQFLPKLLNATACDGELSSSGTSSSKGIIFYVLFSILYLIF

The IC50 is the concentration needed to halve the response being measured. In the case of `CCc1ccccc1NC(=O)Oc1ccc2c(c1)[C@]1(C)CC[N+](C)([O-])[C@@H]1N2C` (stereo partly drawn), the Ratio IC50 in assay [1] was 115. 0.00474 µM corresponded to half-maximal inhibition on Acetylcholinesterase [2] (IC50).

With `CNC(=O)Oc1ccc2c(c1)[C@]1(C)CCO[C@@H]1N2C`, the Ratio IC50 in [3] stood at 27. Also, the values for the half-inhibitory concentration (IC50) on Acetylcholinesterase [4] and at Cholinesterase [5] were 0.004 µM and 0.0067 µM, respectively.

By inhibition is commonly meant the drop in the measured response relative to a control, in per cent. Consider `C#CCN1CCC(CCc2cccc(OC(=O)Nc3ccccc3)c2)CC1`, for which, at Acetylcholinesterase [6], the inhibition was determined as 51.9%. The inhibition at 100 µM in assay [7] turned out to be 54%.

The Ki is the dissociation constant of the complex between target and ligand, obtained from inhibition or displacement. Consider `CC(C)c1ccc(NC(=O)Oc2ccc3c(c2)[C@]2(C)CCN(Cc4ccc(F)cc4)[C@@H]2N3C)cc1`, for which the Ki on Cholinesterase [8] was 0.342 µM.

As for `CC1CCCCN1CCCNC(=O)c1cc(NC(=O)OC(C)(C)C)ccc1O` (stereo not drawn), the inhibition constant (Ki) on Acetylcholinesterase [9] worked out at 0.17 µM. The compound also returned a half-inhibitory concentration (IC50) against Beta-secretase 1 of 0.0154 µM.

`COc1cccc2c1CCCC2NS(=O)(=O)NC(=O)OCc1ccccc1` (stereo not drawn): the results for the IC50 on Carbonic anhydrase 1, at Carbonic anhydrase 2 and on Acetylcholinesterase [10] were 0.00449 µM, 0.00494 µM and 0.000209 µM, respectively.

As for `CC/N=C1\CCc2c1n(C)c1ccc(OC(=O)NC)c(Br)c21`, the values for the half-maximal inhibitory concentration (IC50) (on Acetylcholinesterase [11]; in assay [12]; in assay [13]) were 0.14 µM, 0.21 µM and above 1000 µM, respectively.

For the compound `COc1cc(CNc2nc3c(cnn3C3CCCC3)c(=O)[nH]2)ccc1OC(=O)N(C)C`, the IC50 is 0.97 µM on Cholinesterase [14] and 0.017 µM in assay [15].

Turning to `CCN(CC)C(=O)OC1C[N+]2(C)CCC1CC2` (stereo not drawn), the Ki at Acetylcholinesterase [16] came out at 3.5 µM; at Cholinesterase [17] it was 1.5 µM.

Turning to `Cc1c(Cl)c(=O)oc2cc(OCCCCSC(=S)N3CCCCC3C)ccc12` (stereo not drawn), the results for the 50% inhibitory concentration (IC50) (against Acetylcholinesterase [18]; in assay [19]) were 0.0068 µM and 0.876 µM, respectively.

Take `CCN(C)C(=O)Oc1cccc2c1NCC2CCC(=O)OC` (stereo not drawn): the results for the 50% inhibitory concentration (IC50) at Cholinesterase [14] and on Acetylcholinesterase [20] were 61.6 µM and 0.008 µM, respectively.

On Acetylcholinesterase [21], `CCOC(=O)C1=CN(C)c2cccc(OC(=O)N(C)C)c2C1` came in with a half-maximal inhibitory concentration (IC50) above 1000 µM.

For `COc1cc2c(c(OC)c1)CC(NC(=O)OCc1ccccc1)C2` (stereo not drawn), the figures for the inhibition constant Ki at Acetylcholinesterase [22], at Carbonic anhydrase 1 and at Carbonic anhydrase 2 were 0.000261 µM, 0.00561 µM and 0.00739 µM, respectively.
